Measurements: paper PMC9873282, “Design, synthesis and evaluation of quinoline-O-carbamate derivatives as multifunctional agents for the treatment of Alzheimer’s disease” (Journal of Enzyme Inhibition and Medicinal Chemistry, 2023)

Assays:
eqBuChE = molecular target: T1, eqBuChE (Equus caballus, UniProt P81908); experiment: biochemical; parameters: species or system equine
T1 construct: eqBuChE, from equine serum; purchased Sigma Aldrich; host or cells: equine serum (natural source)
Procedure: The inhibitory activities of the synthesised compounds against eeAChE (from electric eel) and eqBuChE (from equine serum) were tested by the modified Ellman’s method[26]^,[27]. […] The determination of AChE and BuChE inhibitory potency of the synthesised compounds were evaluated by Ellman assay, the detailed procedure referred to our previous work[26]^,[27].

IL-6 = IL-6 production in LPS-stimulated BV-2 cells (ELISA); format: cell-based; settings: 1 µM and 2 µM; 1 µg/mL LPS 24 h
Procedure: (§1) Firstly, the cytotoxicity of compounds 3a, 3c, 3e, 3f, 3k, 3m and 3n were tested using CCK8 assay.
(§2) BV-2 cells (2 × 10^5 cells/well) were seeded in a 24-well cell culture plates. The cells were divided into blank control group, model group (1 µg/mL LPS), LPS + 2 µM compound group, LPS + 1 µM compound group. Each drug group was pre-treated with corresponding concentration of drug solution for 8 h. After 8 h, the culture medium was aspirated out. Except for the blank control group, which was added with DMEM medium, the other groups were stimulated with 1 µg/mL LPS for 24 h. Then cell supernatant was aspirated and centrifuged at 3000 rpm for 3 min. The content of NO in cell culture supernatant was determined by Griess method, and the levels of cytokines IL-6 and IL-1β in cell culture supernatant were determined by IL-6 ELISA kit and IL-1β ELISA kit, respectively.

NO = NO release in LPS-stimulated BV-2 cells (Griess method); format: cell-based; settings: 1 µg/mL LPS 24 h
Procedure: as §1, §2

[1] = system: Aβ25-35-induced PC12 cells injury; experiment: Neuroprotective effect on Aβ25-35-induced PC12 cells injury (CCK-8); format: cell-based; settings: 25 µM Aβ25-35; model cell viability 57.3%
Procedure: The neuroprotective effect of compounds 3a, 3c, 3e, 3f, 3k, 3m, and 3n on Aβ25–35-induced PC12 cells injury were evaluated using CCK-8 assay. […] Furthermore, as shown in Figure 12(B), when PC12 cells were exposed to 25 µM Aβ25-35, the cell viability sharply declined to 57.3% (p < 0.01) compared with untreated group.
• Preparation of Aβ25-35 aggregation. Aβ25-35 was purchased from sigma. 1 mg Aβ25-35 was dissolved in 943 µL of sterilised deionised water to obtain 1 mM stock solution, aliquoted, –20 °C preservation. Removing the appropriate volume in a 48-well plate and incubated in a 37 °C incubator for two days to allow its ageing to accumulate and produce neurotoxicity. After aggregation was completed, the solution was diluted with PBS to get 25 µM solution of Aβ25-35 aggregation. • Neuroprotective effects of compounds on Aβ25-35-induced PC12 cells injury
The PC12 cells during the logarithmic growth phase were digested and centrifuged with pancreatic enzyme solution, the cells were resuspended by adding the prepared media solution, and piped evenly with a pipette to seed in a 96-well cell culture plate (cell concentration adjusted to 2.0 × 10^4 cell·mL^−1). Each well was added 100 µL complete medium was added to each well and incubated at 37 °C and 5% CO2 for 24 h.
After incubation for 24 h, PC12 cells were divided into blank group, control group, Aβ25-35 model group and tested compounds group (5, 10, 20 µM). Then the original medium was discarded, and 100 µL new complete medium were added to PC12 cells, and the tested compounds group was added to 100 µL complete medium containing different concentrations (5, 10, and 20 µM) of tested compounds, incubated for 2 h at 37 °C, 5% CO2 conditions. After incubation for 2 h, 10 µL Aβ25-35 solution was added to the tested compounds groups and model group (the final concentration of Aβ25-35 was 25 µM), and incubated for 24 h at 37 °C, 5% CO2 conditions, 10 µL CCK-8 was added to each well and further incubated for 1 h at 37 °C and 5% CO2. Finally, the OD value was measured at 450 nm using a microplate reader, and each concentration set three wells. The cell survival rate (%) was determined according to the following formula: cell viability (%) = {(ODdrug−ODblank)}/{(ODcontrol−ODblank)}.

[2] = Stability in artificial gastrointestinal fluids; format: in vitro ADME; settings: 8 h incubation
Procedure: Compound 3f was selected to investigate the stabilities by artificial gastrointestinal conditions and (human and rat) liver microsomes.
• The artificial gastrointestinal fluids were prepared on the basis of the standard method described in China Pharmacopoeia (version 2015). The artificial gastric fluid consisted of HCl (0.045 mol/L) and pepsin (10 g/L), while the artificial intestinal fluid consisted of trypsin (10 g/L) and KH2PO4 (6.8 g/L), and the pH was adjusted to 6.8 with 0.1 mol/L NaOH. The blank gastric fluid and blank intestinal fluid was similar as described above without pepsin and trypsin. Compound 3f (1 mg/mL, n = 3) was incubated with artificial gastric fluid、blank gastric fluid 、artificial intestinal fluid and blank intestinal fluid at 37 ◦C, and 600 µL methanol was then added into the reagent to stop reaction at time of 0, 0.5, 1, 2, 3, 4, and 8 h. […] The data were processed by GraphPad Prism 8.0 software.
UPLC-MS/MS method: Targeted analytes were separated using a Agilent xbridge aq C18 column (4.6 mm × 250 mm, 5 µm, USA) at a flow rate of 0.4 ml/min. The mobile phase consisted of solvent A (deionised water with 0.1% formic acid) and solvent B (acetonitrile with 0.1% formic acid). The gradient elution program was as follows: 0–0.5 min (10% B); 0.5–2.5 min (10–98% B); 2.5–3.5 min (98% B); 3.5–3.6 min ([…]); 3.6–5.0 min (10% B). The autosampler temperature was maintained at 12 °C and the injection volume was set at 1 µL.
The mass spectrometer was operated in positive ion mode through multiple-reaction monitoring. The parameters of the mass spectrometer were as follows: capillary ionisation voltage of 3500 V: source gas temperature of 300 °C gas flow of 11 L/min.

AChE = AChE activity in AlCl3-induced zebrafish AD model tissue; format: in vivo
ACh = ACh level in AlCl3-induced zebrafish AD model tissue; format: in vivo
Source text: . After the behavioural experiments, the 168hpf zebrafish were killed and ground, the tissue were used to test the AChE activity and ACh levels. […] .

Rat plasma stability = settings: after 3 h incubation
Procedure: (§3) • 2.The stability of 3f was performed in rat liver microsomes. The rat liver microsomes was purchased from Dalian Meilun Biotechnology Co., Ltd, DaLian, China. […] Solution B (25 mL) contained G-6-P-DH (1000 U), Na-Citrate2 (200 mg), and H2O was used as a solvent. NADPH solution (1 mM) was composed by solution A and solution B (v/v = 5:1). […] The reaction was started by the addition of NADPH. The total mixture (200 µL) was incubated at 37 °C. Cold methanol (600 µL) was added at 0, 5, 15, 20, 30, 45 and 60 min, respectively, to stop the reaction. Samples were centrifuged at 13000 rpm for 10 min at 4 °C, and 100 µL supernatant was removed and analysed by UPLC-MS/MS. The stability results were presented as % remaining vs. time. The experiments were conducted in triplicate. • 3.The stability of 3f was performed in rat plasma. […] The supernatant was dried and redissolved in 100 µL methanol. After centrifugation, the supernatant was analysed by UPLC-MS/MS. The stability data were presented as remaining percentage vs time.

[3] = Rat liver microsomes stability; settings: after 60 min incubation
Procedure: as §3

T1 sequence (P81908 whole entry): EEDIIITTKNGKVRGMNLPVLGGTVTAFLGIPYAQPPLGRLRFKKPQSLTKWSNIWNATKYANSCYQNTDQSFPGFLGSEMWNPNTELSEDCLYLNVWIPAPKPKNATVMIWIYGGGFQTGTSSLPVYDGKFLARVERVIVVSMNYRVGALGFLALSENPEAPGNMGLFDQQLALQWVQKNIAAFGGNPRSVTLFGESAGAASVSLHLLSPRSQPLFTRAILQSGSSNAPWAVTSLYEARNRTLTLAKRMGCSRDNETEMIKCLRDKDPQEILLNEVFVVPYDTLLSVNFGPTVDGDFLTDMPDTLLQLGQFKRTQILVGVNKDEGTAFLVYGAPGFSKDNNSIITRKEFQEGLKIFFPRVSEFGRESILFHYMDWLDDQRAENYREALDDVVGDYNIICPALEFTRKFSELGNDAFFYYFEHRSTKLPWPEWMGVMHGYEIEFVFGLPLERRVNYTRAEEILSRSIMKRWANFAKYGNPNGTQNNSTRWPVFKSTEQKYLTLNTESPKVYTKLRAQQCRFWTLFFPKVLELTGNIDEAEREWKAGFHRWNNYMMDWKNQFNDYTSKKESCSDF

## CCN(CC)C(=O)Oc1cccc2ncccc12 [Compound 3f, Quinolin-5-yl diethylcarbamate]
eqBuChE; BuChE from equine serum, read-out: IC50 ± SD eqBuChE
  IC50: 810 ± 60 nM
eqBuChE; eeAChE/eqBuChE
  SI = IC50 (AChE)/IC50 (BuChE): 1.6
IL-6
  levels of IL-6 compared with model group: significantly decreased
NO
  release volume of NO: significantly decreased
[1]
  neuroprotective effect on Aβ25-35-induced PC12 cells injury: remarkable neuroprotective effects at 5 and 10 µM
[2]; artificial gastric fluid
  remaining amount: 99.2%
[2]; artificial intestinal fluid
  remaining amount: 107.7%
[2]; blank gastric fluid
  remaining amount: 102.6%
[2]; blank intestinal fluid
  remaining amount: 103.4%
AChE; 0.08 µM
  AChE activity: 98095.7 nmol/min/g
AChE; 0.16 µM
  AChE activity: 64663.2 nmol/min/g
AChE; 0.32 µM
  AChE activity: 102433.6 nmol/min/g
ACh; 0.08 µM
  ACh activity (level): 16.4 pmol/L
ACh; 0.16 µM
  ACh activity (level): 18.4 pmol/L
ACh; 0.32 µM
  ACh activity (level): 15.4 pmol/L
Rat plasma stability
  remaining amount in rat plasma: 95.5%
[3]
  remaining amount in rat liver microsomes: 104.4%
